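Cells were grown in 96-well plates and exposed to each compound for 48 hours at five concentrations; endpoints were interpolated linearly between bracketing concentrations, or set to the highest concentration if not reached. GI50 marks 50% less growth. TGI is the concentration that stops growth completely.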
Columns and labels:
Experiment in all cases: NCI tumour cell line growth inhibition, 48 h
[1] = system: SNB-19 CNS
[2] = system: LOX IMVI melanoma
[3] = system: HCT-15 colon
[4] = system: SN12C renal
[5] = system: OVCAR-5 ovarian
[6] = system: SF-539 CNS
[7] = system: M14 melanoma
[8] = system: A498 renal
[9] = system: HT29 colon
[10] = system: PC-3 prostate

Compound	TGI [1]	TGI [2]	TGI [3]	TGI [4]	TGI [5]	TGI [6]	TGI [7]	TGI [8]	TGI [9]	GI50 [1]	GI50 [2]	GI50 [3]	GI50 [10]	TGI [10]	GI50 [4]	GI50 [5]	GI50 [6]	GI50 [9]	GI50 [7]	GI50 [8]
CC(=O)OC1(C#N)CC2OC1C1C2N1C(=O)c1ccccc1 (stereo not given)	> 100 µM	> 100 µM	> 100 µM	> 100 µM	> 100 µM	> 100 µM	> 100 µM	> 100 µM	–	–	–	–	–	–	–	–	–	–	–	–
CCSC1(SCC)CCN(C=NC(C)(C)C)C1	> 100 µM	> 100 µM	> 100 µM	> 100 µM	> 100 µM	> 100 µM	> 100 µM	> 100 µM	> 100 µM	–	–	–	–	–	–	–	–	–	–	–
COc1cc2c(cc1OC)C(CCc1ccc(Cl)cc1)N(C)CC2 (stereo not given)	> 100 µM	30.8 µM	> 100 µM	> 100 µM	61.7 µM	39 µM	37.7 µM	–	86 µM	37.1 µM	15 µM	30.2 µM	20.1 µM	> 100 µM	39.9 µM	19.6 µM	17.1 µM	14.2 µM	17.3 µM	–
COc1ccc(/C=C/C(=O)c2sc(N)nc2C)cc1	> 100 µM	> 100 µM	> 100 µM	> 100 µM	> 100 µM	> 100 µM	–	> 100 µM	> 100 µM	–	–	–	–	–	–	–	–	–	–	–
OC(c1ccccc1)(c1ccccc1)c1ccccn1	> 100 µM	> 100 µM	> 100 µM	> 100 µM	> 100 µM	> 100 µM	> 100 µM	> 100 µM	> 100 µM	–	–	–	–	–	–	–	–	–	–	–
Cc1ccc(/C=C(\C#N)n2nnc3cc(Cl)c(Cl)cc32)cc1	–	3.65 µM	5.99 µM	13.1 µM	9.43 µM	6.6 µM	5.66 µM	4.59 µM	13.6 µM	–	1.81 µM	1.73 µM	–	–	3.13 µM	3.25 µM	2.53 µM	2.59 µM	2.18 µM	1.91 µM
Nc1nnc2nc(CC(=O)/C=C/c3ccccc3)c(=O)[nH]n12	> 100 µM	> 100 µM	> 100 µM	> 100 µM	> 100 µM	> 100 µM	> 100 µM	> 100 µM	> 100 µM	–	–	–	–	–	–	–	–	–	–	–
CC(C)c1cc(C(C)C)c(S(=O)(=O)NN)c(C(C)C)c1	> 100 µM	> 100 µM	> 100 µM	> 100 µM	> 100 µM	> 100 µM	–	> 100 µM	> 100 µM	–	–	–	–	–	–	–	–	–	–	–
CCOC(=O)CC(=O)ON(C)C(=O)Cc1ccccc1	> 100 µM	> 100 µM	> 100 µM	> 100 µM	> 100 µM	> 100 µM	> 100 µM	> 100 µM	> 100 µM	–	–	–	–	–	–	–	–	–	–	–
C=CCC(C(=O)OC)C1(C(=O)OC)c2[nH]c3ccccc3c2CCN1Cc1ccccc1 (stereo not given)	> 100 µM	–	> 100 µM	> 100 µM	> 100 µM	> 100 µM	> 100 µM	> 100 µM	> 100 µM	–	–	–	–	–	–	–	–	–	–	–
COc1ccc(/C=C2\N=C(c3ccccc3)OC2=O)c(OCc2ccccc2)c1	94.3 µM	> 100 µM	–	> 100 µM	> 100 µM	46.6 µM	> 100 µM	68.5 µM	–	–	–	–	–	–	–	–	–	–	–	–
C=C1C(=O)OC2CCCCC3OC3C12 (stereo not given)	36.8 µM	31.9 µM	19.9 µM	21.3 µM	32.3 µM	28.1 µM	20.4 µM	29.1 µM	32.2 µM	–	–	–	–	–	–	–	–	–	–	–
N=C(N)n1ncc(Cl)c(Cl)c1=O	12.9 µM	–	3.99 µM	8.44 µM	30.7 µM	5.42 µM	4.03 µM	35.1 µM	–	–	–	–	–	–	–	–	–	–	–	–
CC(=O)CC(=O)CCCC(=O)Nc1ccc(Cl)cc1C	> 100 µM	> 100 µM	> 100 µM	> 100 µM	> 100 µM	> 100 µM	> 100 µM	> 100 µM	> 100 µM	–	–	–	–	–	–	–	–	–	–	–
CC(=O)NNc1nc(C)c(C(=O)NNC(=O)C(=O)Nc2ccc(C)c(C)c2)s1	> 100 µM	> 100 µM	> 100 µM	> 100 µM	> 100 µM	> 100 µM	> 100 µM	> 100 µM	> 100 µM	–	–	–	–	–	–	–	–	–	–	–
CC1=C(C(=O)Nc2cccc(C(F)(F)F)c2)C(c2ccc(O)cc2)C(C(=O)Nc2cccc(C(F)(F)F)c2)=C(C)N1	> 100 µM	33.1 µM	–	–	72.6 µM	60.5 µM	35.5 µM	71.9 µM	31.7 µM	–	–	–	–	–	–	–	–	–	–	–
O=C(NCCCN1CCN(CCCNC(=O)c2cnc3ccccc3n2)CC1)c1cnc2ccccc2n1	> 100 µM	> 100 µM	> 100 µM	> 100 µM	–	> 100 µM	> 100 µM	> 100 µM	> 100 µM	–	–	–	–	–	–	–	–	–	–	–
CCCOc1ccc(/C(Cl)=C(\C=O)c2ccc(OC)c(OC)c2)cc1OCCC	> 100 µM	25.8 µM	32.8 µM	> 100 µM	> 100 µM	55.1 µM	> 100 µM	38.5 µM	18.5 µM	–	–	–	–	–	–	–	–	–	–	–
C/C(CN1C(=O)c2ccccc2C1=O)=N\NS(=O)(=O)c1ccccc1	> 100 µM	> 100 µM	> 100 µM	> 100 µM	> 100 µM	> 100 µM	> 100 µM	> 100 µM	> 100 µM	–	–	–	–	–	–	–	–	–	–	–
O=[N+]([O-])c1cccc(C2SCc3nc4ccccc4n32)c1 (stereo not given)	> 100 µM	> 100 µM	–	> 100 µM	> 100 µM	> 100 µM	–	> 100 µM	> 100 µM	–	–	–	–	–	–	–	–	–	–	–
Cc1ccc2nc3c(Cl)cc(=O)cc-3sc2c1	–	–	32 µM	–	–	11.5 µM	60.5 µM	–	91.7 µM	–	–	–	–	–	–	–	–	–	–	–
COc1cc2cc3c4c(cc(OC)c(OC)c4c2cc1OC)CCN3C(=O)CCCC(=O)O	> 100 µM	> 100 µM	–	> 100 µM	> 100 µM	> 100 µM	> 100 µM	> 100 µM	> 100 µM	–	–	–	–	–	–	–	–	–	–	–
C/C(=N\NC(=O)CC(=O)Nc1ccc(C)cc1)c1cc2ccccc2oc1=O	> 100 µM	> 100 µM	> 100 µM	> 100 µM	–	> 100 µM	> 100 µM	–	> 100 µM	–	–	–	–	–	–	–	–	–	–	–
CCc1cccc(C(C)CC)c1N=C(NC(=O)c1ccccc1C(=O)NC(=Nc1c(CC)cccc1C(C)CC)SC)SC (stereo not given)	> 100 µM	> 100 µM	> 100 µM	> 100 µM	> 100 µM	68.8 µM	44.5 µM	–	> 100 µM	–	–	–	–	–	–	–	–	–	–	–

— PubChem BioAssay (NCI)
